This is an account of results in patent US5633277A, “Sulfonamide aminomethylene derivatives as immunosuppressants” (Miles Inc., priority 1995, dated 1997).

For one assay, the system named is NF-AT. In words: NF-AT Inhibition Assay (NF-AT directed β-galactosidase expression in stimulated FGL-5 cells). Particulars: phorbol ester and ionomycin stimulated, 16-18 hours. It counts as cell-based. The method, then: Stimulation of T-cells leads to the appearance of several transcription factors, including one designated "NF-AT". These factors are involved in regulation of gene expression required for immunologic activation. Some of these transcription factors appear to have functions in a wide variety of cell types. By contrast, NF-AT is found primarily in T-cells and its role is restricted to early gene activation.
Inhibition of NF-AT activity is measured using FGL-5 cells. FGL-5 is a cloned line of stably transfected Jurkat T-cells that contain a construct in which three tandem copies of the NF-AT DNA binding site direct transcription of the lacZ gene, encoding β-galactosidase (Fiering et al., 1990, Genes & Development 4:1823). When these cells are stimulated with phorbol esters which activate protein kinase C and calcium ionophore to raise the intracellular calcium concentration, transcriptionally active NF-AT is produced. In T-cells, this normally leads to the expression of IL-2, T-cell growth factor. However, in FGL-5 cells NF-AT activation leads to the production of β-galactosidase which can be detected using an appropriate substrate.
NF-AT Inhibition Assay Directed β-Galactosidase Expression
This assay was performed essentially as described (Bierer et al., 1990, Proc. Natl. Acad. Sci. 87:9231). FGL-5 cells were maintained in medium consisting of RPMI-1640 with 10% FBS, 2 mM L-glutamine, 1% Penicillin- Streptomycin and 15 mM HEPES buffer. The assays were done with exponentially growing cells whose density was not greater than 0.5 million cells/ml. The cells were resuspended to 3 million cells/ml in medium and 0. 1 mi was added to wells of a 96-well plate.
The compounds of the present invention were dissolved in either ethanol or dimethylsulfoxide at 10 mM and 0.05 ml/well of various dilutions in medium were added to cells in duplicate wells. Treatment controls consisted of duplicate wells to which 0.05 ml/well of either medium, ethanol or dimethylsulfoxide was added. The ethanol and dimethyl sulfoxide were at the same concentration as was used for the compounds. Cells were incubated with compounds at room temperature for 10-15 minutes. Phorbol dibutyrate (Sigma) and Ionomycin (Calbiochem) were dissolved at 50 μg g/mi and 2 mM, respectively and stored at -70° C.
FGL-5 cells were stimulated by diluting these reagents with medium to 200 ng/ml and 8 μM, respectively and adding of 0.05 ml/well. For unstimulated cell controls, 0.05 mi/well of medium was added to duplicate wells. The plates were incubated overnight (16-18 hours) at 37° C. in a humidified atmosphere of 5% CO2 and air. β-galactosidase activity was measured as the fluorescence generated by the cleavage of 4-methyl umbelliferyl-β-D-galactoside (Sigma) at the β-galactoside bond. After overnight incubation, the cells were centrifuged at 500×g for 3 minutes in the 96-well plates and washed 3 times with PBS. The cells were then resuspended in 0. 18 mi/well of reaction medium containing 100 mM sodium phosphate buffer, pH 7.0, 10 mM potassium chloride, 1 mM magnesium sulfate, 0.1% Triton X-100 (Pierce, Rockford, Ill.), and 0.5 mM 4-methylumbelliferyl-β-D- galactoside.
The fluorescence at 460 nm using 355 nm excitation was measured at intervals over 1-2 hours (during which fluorescence increased linearly with time) with a LS50 Luminescence Spectrometer (Perkin Elmer).
The percent inhibition by each concentration of the compounds was calculated as: [formula]
The values of the concentration of compounds required for 50% inhibition (IC50) were determined by linear regression analysis of the percent inhibition at various compound concentrations.

In another assay the test system is human T-cells. In words: Suppression of Human T-Cell Proliferation Assay (mitogen-induced, [3H]-thymidine incorporation). It counts as cell-based. Particulars: for IC50: Homo sapiens, T-cell, 72 hours incubation, mitogen stimulated, read-out: IC50 (inhibition of [3H]-thymidine incorporation of T-cells by 50%). An excerpt: 2) Human T Lymphocyte Inhibition
Inhibition of mitogen-induced T-cell proliferation can be used to profile immunosuppressive activity of test compounds. In the description of the assay which follows, mitogen-induced T-cell proliferation was used to test the inhibitory potencies of select compounds of the present invention.
In an assay similar to that described by Bradley in Mishell et al. (Eds.), 1980, Selected Methods in Cellular Immunology, pp 156-161, W. H. Freeman & Co., San Fransisco, Calif., T-cells were stimulated by incubation with phytohemagglutinin (PPIA) which binds to cell surface molecules, including the T-cell receptor. This stimulation results in proliferation which can be measured by incorporation of [^3 H]-thymidine into cellular DNA.
The immunosuppressive properties of the compounds of the present invention can be determined by adding various concentrations of the compounds to these cultures and measuring the effect on T-cell proliferation.
Suppression of Human T-Cell Proliferation Assay
Fresh LeukoPaks were obtained from the New York Blood Center, New York, N.Y. The cells, including erythrocytes and leukocytes, were diluted with Hank's Balanced Salt Solution (HBSS) (GIBCO, Grand Island, N.Y.) and layered over Lymphoprep (Nycomed Pharma AS, Oslo, Norway) in sterile 50 ml conical centrifuge tubes. Lymphocytes were isolated at the Hank's/Nycomed interface after centrifugation at 2000×g, 4° C. for 15 min. The lymphocytes were washed with Minimal Essential Medium (GIBCO) containing 2% fetal bovine serum (FBS) (Sigma Chemical Co., St. Louis, Mo.), 1% HEPES buffer (GIBCO) and 1% Penicillin-Stretomycin solution (GIBCO).
T-cells were further purified essentially by sheep erythrocyte (SRBC) rosetting as described by Morimoto et al., 1983, J. Immunol. 130:157. The isolated lymphocytes were adjusted to 2×10^7 cells/ml and 5 ml aliquots of the cell suspension were incubated for 10 minutes at room temperature with 5 ml of a 5% SRBC (Cappel, Organon Technika Corp., West Chester, Pa.) suspension. The cells were gently pelleted by centrifugation at 300 rpm for 10 minutes, followed by a 1 hour incubation at room temperature to allow rosette formation. The cells were gently resuspended,layered over Lymphoprep and centrifuged for 30 minutes at 500×g. The pellet, containing rosetted T-cells and SRBC was treated with ice cold buffered ammonium chloride (GIBCO) to lyse the erythrocytes. T-cells were washed twice with HBSS.
Purified T-cells were resuspended at 2×10^6 cells/ml in complete culture medium composed of RPMI-1640 (Whittaker Bioproducts, Walkerville, Md.) with 10% FBS (Sigma), 2 mM L-glutamine (GIBCO), 1% Penicillin-Streptomycin (GIBCO) and 15 mM HEPES (GIBCO). In 96-well plates (Becton Dickinson, Lincoln Park, N.J.), 0.1 ml aliquots of T-cell suspension were mixed with 0.05 ml of 40 μg/ml PPIA-M (Sigma). The compounds of this invention were dissolved in dimethylsulfoxide at 10 mM and various dilutions in complete medium were added in duplicate wells (0.05 ml/well). The plates were incubated at 37° C. in a humidified atmosphere of 5% carbon dioxide and 95% air for 72 hours.
Proliferation was assessed by measurement of [3H]-thymidine incorporation. During the last 6 hours of incubation, the cells were pulse labelled with 1 μCi/well of [3H]-thymidine (New England Nuclear, Boston, Mass.). The cells were harvested onto glass fiber paper using a plate harvester and the radioactivity incorporated into cellular DNA corresponding to individual wells was measured by standard liquid scintillation counting methods. The mean counts per minute (CPM) of replicate wells was calculated and linear regression analysis of mean CPM versus compound concentration was used to determine the concentration of compound which would inhibit [^3 H]-thymidine incorporation of T-cells by 50% (IC50).
For orientation: Dividing cells build labelled thymidine or BrdU into new DNA.

Values joined by “and” are separate entries in the source; they are usually repeats but may differ in a detail not shown here. Equal values may be shown once. Bounds are passed on as bounds.

Turning to `CC(C)C[C@@H](CN1CCC[C@H]1C(=O)NCCCCc1ccccc1)NS(=O)(=O)c1ccc(-c2ccon2)s1` [Example 8, 1-[2-(S)-(5 - [Isoxazol-25-yl]-thiophene-2-sulfonylamino)-4-methylpentyl]-L-proline 4-Phenylbutylamide], the figures for the IC50 in the assay on NF-AT and with human T-cells were above 15 µM and 1000 nM, respectively.

`CC[C@H](C)[C@H](NC(=O)[C@@H]1CCCCN1C[C@@H](NS(C)(=O)=O)[C@@H](C)CC)C(=O)NCc1ccccc1` [Example 11]: the IC50 in the assay on NF-AT is above 15 µM; in the assay on human T-cells, above 15000 nM.

`CC(C)C[C@@H](CN1CCC[C@H]1C(=O)NCCCCc1ccccc1)NS(=O)(=O)/C=C/c1ccccc1` [Example 6, 1-[2-(S)-(2-phenyl-ethenesulfonylamino)-4-methylpentyl]-L-proline 4-Phenylbutylamtde]: the results for the IC50 with NF-AT and in the assay on human T-cells were above 15 µM and 5000 nM, respectively.

Turning to `CC(C)C[C@@H](CN1CCC[C@H]1C(=O)NCCCCc1ccccc1)NS(=O)(=O)c1cccs1` [Example 5, 1-[2-(S)-(Thiophene-2-sulfonylamino)-4-methylpentyl]-L-proline 4-Phenylbutylamide], the IC50 was determined as 24 µM with NF-AT and 3000 nM in the assay on human T-cells.

For the compound `CC(C)C[C@@H](CN1CCC[C@H]1C(=O)NCCCCc1ccccc1)NS(C)(=O)=O` [Example 1, 1-[2-(S)-Methanesulfonylamino-4-methylpentyl]-L-proline 4-Phenylbutylamide], the IC50 is ≤ 11 µM and 9 µM in the assay on NF-AT; 2000 nM with human T-cells. The “inhibition of mitogen-induced T-cell proliferation (in words)” value in the assay on human T-cells is “inhibited mitogen induced T-cell proliferation”.

In the case of `CC(=O)Nc1nc(C)c(S(=O)(=O)N[C@@H](CC(C)C)CN2CCC[C@H]2C(=O)NCCCCc2ccccc2)s1` [Example 4, 1-[2-(S)-(2-Acetylamino-4-methyl-S-thiazolesulfonylamino)-4-methylpentyl]-L -proline 4-Phenylbutylamide], the values for the IC50 with NF-AT and in the assay with human T-cells were 24 µM and 2000 nM, respectively.

With `Cc1ccc(S(=O)(=O)N[C@@H](CC(C)C)CN2CCC[C@H]2C(=O)NCCCCc2ccccc2)cc1` [Example 2, 1-[2-(S)-(Toluene-4-sulfonylamino)-4-methylpentyl]-L-proline 4-Phenylbutylamide], the IC50 came out at 27 µM in the assay on NF-AT and 8000 nM in the assay with human T-cells.

`CC(C)C[C@@H](CN1CCC[C@H]1C(=O)NCCCCc1ccccc1)NS(=O)(=O)c1cccc2cccnc12` [Example 3, 1-[2-(S)-(Quinoline-8-sulfonylamino)-4-methylpentyl]-L-proline 4-Phenylbutylamide]: the IC50 with NF-AT was ≤ 11 µM and 11 µM. For the same compound, in the assay on human T-cells, the “inhibition of mitogen-induced T-cell proliferation (in words)” value is “inhibited mitogen induced T-cell proliferation” and the IC50 stood at 5000 nM.

On to `CC(C)C[C@@H](CN1CCC[C@H]1C(=O)NCCCCc1ccccc1)NS(=O)(=O)CC12CCC(CC1=O)C2(C)C` (single isomer, unassigned) [Example 7], for which the IC50 with NF-AT was above 15 µM; in the assay with human T-cells it was 2000 nM.

As to `CC(C)C[C@@H](CN1CCC[C@H]1C(=O)NCCCCc1ccccc1)NS(=O)(=O)c1c(C(C)C)cc(C(C)C)cc1C(C)C` [Example 10, 1-[2-(S)-(2',4',6'-Triisopropylbenzenesulfonylamino)-4-methylpentyl]-L-proline 4-Phenylbutylamide], the IC50 with NF-AT is above 15 µM; in the assay on human T-cells, 4000 nM.
